US5906930A, “Para-nitrobenzyl esterases with enhanced activity in aqueous and nonaqueous media” (California Institute of Technology, priority 1998, dated 1999)
Positions count from the first letter of the chain named.

Tests used:
Assay in all cases: Kinetic assays of purified pNB esterase (ester hydrolysis)
Assay type in all cases: biochemical
Details in all cases: 0.1M PIPES pH 7.0, 30° C.
[1] = molecular target: T1, Bacillus subtilis para-nitrobenzyl esterase (pNB esterase), wild type 0-WT, SEQ. ID. NO. 2 (Bacillus subtilis, UniProt P37967); design: unit not given beside the values
T1 sequence (P37967 1-489 K23L/S59P/K95Q/N150D/S230A/G242S/K246R/S251A/A291S/V343A/K390E/L463V): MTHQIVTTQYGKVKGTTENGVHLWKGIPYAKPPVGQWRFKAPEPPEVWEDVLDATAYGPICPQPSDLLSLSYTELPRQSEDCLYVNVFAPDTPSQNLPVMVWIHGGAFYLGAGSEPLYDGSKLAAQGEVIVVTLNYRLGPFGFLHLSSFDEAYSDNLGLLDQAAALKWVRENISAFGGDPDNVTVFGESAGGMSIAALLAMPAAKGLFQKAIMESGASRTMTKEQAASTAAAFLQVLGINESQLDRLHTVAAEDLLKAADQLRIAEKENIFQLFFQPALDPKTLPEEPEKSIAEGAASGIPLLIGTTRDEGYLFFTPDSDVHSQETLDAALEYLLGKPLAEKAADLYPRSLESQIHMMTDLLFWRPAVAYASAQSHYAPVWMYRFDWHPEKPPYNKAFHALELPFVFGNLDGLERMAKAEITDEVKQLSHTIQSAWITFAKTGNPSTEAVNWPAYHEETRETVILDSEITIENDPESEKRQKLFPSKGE
Method: (§1) Bacteria expressing seven pNB esterases, 0-WT (SEQ. ID. NO. 2), 1-1H9, 2-19E10, 3-10C4, 4-38B9, 4-43E7, and 4-54B9, were grown in one liter cultures and the enzymes were purified. These purified enzymes were assayed for their ability to hydrolyze the different ester substrates in the presence of various concentrations of DMF. FIGS. 8a, b and c show the specific reaction rates on pNPA as a function of pNPA substrate concentration for this series of evolved variants from the four generations of mutagenesis and screening. […] The wild type enzyme outperforms 1-1H9 in purely aqueous buffer (FIG. 8a). The actual screening, however, was performed in the presence of DMF, and in 15 and 30% DMF, 1-1H9 has higher specific activity towards pNPA than wild type (FIGS. 8b and 8c). Similar trends are seen for the remaining variants assayed on this substrate. […] In 30% DMF, wild type drops still further relative to the pNB esterase variants. Variants 4-38B9 and 4-43E7, presumably by, virtue of having been screened in DMF for four rounds of mutagenesis, are the best performers in 30% DMF.
(§2) DMF dramatically increases KM while also decreasing kcat. For the LCN substrates, the mutations accumulated during directed evolution mitigate the increased KM. The effects on kcat, however, are more prominent: kcat increases more than 9-fold from wild type to 4-54B9 in 15% DMF, while KM decreases by less than a factor of two on LCN-pNB. […] At substrate concentrations […], increased specific activity will result mainly from improvements in kcat. These improvements are obviously the most useful for enzymes intended to be used for transformations in high substrate concentrations.
(§3) Kinetic assays were performed on three substrates: pNPA, LCN-pNP, and p-nitrobenzyl loracarbef nucleus (LCN-pNB). For pNPA and LCN-pNP substrates, final concentrations varying from 0.0625 mM to 16 mM and 0, 15, and 30% DMF in 0.1M PIPES (Sigma), pH 7.0 were combined with equal volumes of enzyme samples. These samples were mixed simultaneously in a 96 well plate and monitored with the 96 well plate reader. The absorbance values were recorded, linearly regressed, and then used for calculating kinetic parameters. For the LCN-pNB substrate, final concentrations varying from 0.0156 mM to 8.0 mM and 0, 15 and 30% DMF in PIPES, pH 7.0 were combined with enzyme samples in a quartz cuvette and were measured in a spectrophotometer at 289 nm. All assays were measured in triplicate.

[2] = molecular target: T2, Bacillus subtilis para-nitrobenzyl esterase variant 2-19E10 (1-1H9 substitutions + M358V), SEQ. ID. NO. 6 (Bacillus subtilis, UniProt P37967, H322R/M358V/Y370F); design: unit not given beside the values
T2 sequence (P37967 1-489 K23L/S59P/K95Q/N150D/S230A/G242S/K246R/S251A/A291S/H322R/V343A/M358V/Y370F/K390E/L463V): T1 sequence (P37967 1-489 K23L/S59P/K95Q/N150D/S230A/G242S/K246R/S251A/A291S/V343A/K390E/L463V) with H322R, M358V, Y370F
Method: as §1, §2, §3

[3] = molecular target: T3, Bacillus subtilis para-nitrobenzyl esterase variant 4-43E7 (3-10C4 substitutions + L334V and one further substitution), SEQ. ID. NO. 12 (Bacillus subtilis, UniProt P37967, H322R/L144M/L334V/M358V/S94G/Y370F); design: unit not given beside the values
T3 sequence (P37967 1-489 K23L/S59P/S94G/K95Q/L144M/N150D/S230A/G242S/K246R/S251A/A291S/H322R/L334V/V343A/M358V/Y370F/K390E/L463V): T1 sequence (P37967 1-489 K23L/S59P/K95Q/N150D/S230A/G242S/K246R/S251A/A291S/V343A/K390E/L463V) with S94G, L144M, H322R, L334V, M358V, Y370F
Method: as §1, §2, §3

[4] = molecular target: T4, Bacillus subtilis para-nitrobenzyl esterase variant 4-54B9 (3-10C4 substitutions + L334S and one further substitution), SEQ. ID. NO. 14 (Bacillus subtilis, UniProt P37967, H322R/K267R/L144M/L334S/M358V/Y370F); design: unit not given beside the values
T4 sequence (P37967 1-489 K23L/S59P/K95Q/L144M/N150D/S230A/G242S/K246R/S251A/K267R/A291S/H322R/L334S/V343A/M358V/Y370F/K390E/L463V): T1 sequence (P37967 1-489 K23L/S59P/K95Q/N150D/S230A/G242S/K246R/S251A/A291S/V343A/K390E/L463V) with L144M, K267R, H322R, L334S, M358V, Y370F
Method: as §1, §2, §3

[5] = molecular target: T5, Bacillus subtilis para-nitrobenzyl esterase variant 1-1H9 (incl. Y370F), SEQ. ID. NO. 4 (Bacillus subtilis, UniProt P37967, H322R/Y370F)
T5 sequence (P37967 1-489 K23L/S59P/K95Q/N150D/S230A/G242S/K246R/S251A/A291S/H322R/V343A/Y370F/K390E/L463V): T1 sequence (P37967 1-489 K23L/S59P/K95Q/N150D/S230A/G242S/K246R/S251A/A291S/V343A/K390E/L463V) with H322R, Y370F
Method: Bacteria expressing seven pNB esterases, 0-WT (SEQ. ID. NO. 2), 1-1H9, 2-19E10, 3-10C4, 4-38B9, 4-43E7, and 4-54B9, were grown in one liter cultures and the enzymes were purified. These purified enzymes were assayed for their ability to hydrolyze the different ester substrates in the presence of various concentrations of DMF.
The effects on kcat, however, are more prominent: kcat increases more than 9-fold from wild type to 4-54B9 in 15% DMF, while KM decreases by less than a factor of two on LCN-pNB. […] These improvements are obviously the most useful for enzymes intended to be used for transformations in high substrate concentrations.
as §3

[6] = molecular target: T6, Bacillus subtilis para-nitrobenzyl esterase variant 3-10C4 (2-19E10 substitutions + L144M), SEQ. ID. NO. 8 (Bacillus subtilis, UniProt P37967, H322R/L144M/M358V/Y370F)
T6 sequence (P37967 1-489 K23L/S59P/K95Q/L144M/N150D/S230A/G242S/K246R/S251A/A291S/H322R/V343A/M358V/Y370F/K390E/L463V): T1 sequence (P37967 1-489 K23L/S59P/K95Q/N150D/S230A/G242S/K246R/S251A/A291S/V343A/K390E/L463V) with L144M, H322R, M358V, Y370F
Method: as §1, §2, §3

[7] = molecular target: T7, Bacillus subtilis para-nitrobenzyl esterase variant 4-38B9 (3-10C4 substitutions + I60V), SEQ. ID. NO. 10 (Bacillus subtilis, UniProt P37967, H322R/I60V/L144M/M358V/Y370F)
T7 sequence (P37967 1-489 K23L/S59P/I60V/K95Q/L144M/N150D/S230A/G242S/K246R/S251A/A291S/H322R/V343A/M358V/Y370F/K390E/L463V): T1 sequence (P37967 1-489 K23L/S59P/K95Q/N150D/S230A/G242S/K246R/S251A/A291S/V343A/K390E/L463V) with I60V, L144M, H322R, M358V, Y370F
Method: as §1, §2, §3

[8] = substrate p-nitrobenzyl loracarbef nucleus, 0% DMF
[9] = substrate p-nitrobenzyl loracarbef nucleus, 15% DMF
[10] = substrate p-nitrophenyl loracarbef nucleus, 0% DMF
[11] = substrate p-nitrophenyl loracarbef nucleus, 15% DMF
[12] = substrate p-nitrophenyl loracarbef nucleus, 30% DMF

SMILES: NC1C(=O)N2C(C(=O)OCc3ccc([N+](=O)[O-])cc3)=C(Cl)CCC12 (centres unmarked) [p-nitrobenzyl loracarbef nucleus]
- kcat [1, 8]: 1.64
- kcat [1, 9]: 0.54
- kcat [2, 8]: 4.59
- kcat [2, 9]: 1.81
- kcat [3, 8]: 9.13
- kcat [3, 9]: 3.02
- kcat [4, 8]: 18.96
- kcat [4, 9]: 6.84
- kcat [5, 8]: 1.94
- kcat [5, 9]: 0.69
- kcat [6, 8]: 6.53
- kcat [6, 9]: 1.62
- kcat [7, 8]: 8.51
- kcat [7, 9]: 1.89

SMILES: NC1C(=O)N2C(C(=O)Oc3ccc([N+](=O)[O-])cc3)=C(Cl)CCC12 (centres unmarked) [p-nitrophenyl loracarbef nucleus]
- kcat [1, 10]: 0.14
- kcat [1, 11]: 0.10
- kcat [1, 12]: 0.024
- kcat [2, 10]: 0.25
- kcat [2, 11]: 0.12
- kcat [2, 12]: 0.023
- kcat [3, 10]: 0.67
- kcat [3, 11]: 0.40
- kcat [3, 12]: 0.094
- kcat [4, 10]: 1.44
- kcat [4, 11]: 0.93
- kcat [4, 12]: 0.141
- kcat [5, 10]: 0.08
- kcat [5, 11]: 0.07
- kcat [5, 12]: 0.021
- kcat [6, 10]: 0.35
- kcat [6, 11]: 0.21
- kcat [6, 12]: 0.044
- kcat [7, 10]: 0.39
- kcat [7, 11]: 0.25
- kcat [7, 12]: 0.067
